The text below walks through data of patent publication US20050288379A1, “Benzoquinone compounds as anti-cancer agents” (priority 2004, published 2005).

In this test the test system is Human cancer cell lines Eca-109, AGS, BGC-823, DU145, SPC-A-1, Caco-2, LS-174T, A375, Raji, MCF-7, Bcap-37, HepG2. In words: In vitro MTT assay of inhibition of cancer cell growth. The format is cell-based. As to conditions: 12 human cancer cell lines, 48 hrs incubation, IqA 0.3-100 μg/ml, IqB 0.03-10 μg/ml, absorbance 492 nm, IC50 values calculated but not given. On the procedure: An in vitro assay was conducted to evaluate the efficacy of IqA and IqB in inhibiting the growth of cancer cells.
Human cancer cell lines, i.e., Eca-109 (esophagus carcinoma cell line), AGS and BGC-823 (gastric adenocarcinoma cell lines), DU145 (prostate carcinoma cell line), SPC-A-1 (lung adenocarcinoma cell line), Caco-2 and LS-174T (colonic carcinoma cell lines), A375 (malignant melanoma cell line), Raji (Burkitt's lymphoma cell line), MCF-7 and Bcap-37 (breast carcinoma cell lines), HepG2 (hepatoma cell line), were purchased from the Cell Bank of Shanghai Institute of Cell Biology, Chinese Academy of Sciences, and cultured in Iscove's Modified Dulbecco's Medium (IMDM) containing 10% fetal bovine serum (FBS) in an incubator at 37° C. under 5% CO2. Cells of 70-80% confluence were trypsinized, resuspended in IMDM medium containing 10% FBS at 1×10^5 cells/ml, and seeded in 96-well plates (100 μl in each well). The plates were incubated at 37° C. under 5% CO2 overnight.
IqA and IqB were provided by Shandong Xinhua Pharmaceutical CO. Ltd. IqA and IqB stock solutions were prepared at the concentrations of 10 mg/ml and 1 mg/ml in dimethyl sulfoxide (DMSO), respectively. The IqA solution was diluted with the growth medium into a series of solutions at different concentrations. […]
150 μl of DMSO was added to each well. […] Absorbance was measured at 492 nm using a microplate reader. […]

For `CCCCCC/C=C\CCCCCCCCCC1=CC(=O)C=C(OC)C1=O` [IqA, irisqinone A], the “inhibition of the proliferation of cancer cells” value is given as “effectively inhibited the proliferation”. For the compound `CCCCCCCCCCCCCCCCCC1=CC(=O)C=C(OC)C1=O` [IqB, irisquinone B], the “inhibition of the proliferation of cancer cells” value is on record as “effectively inhibited the proliferation”.
